Common to all, as to assay: MTT cytotoxicity assay, 48 h
What all share (type): cell-based

Experiment [1] relates to human cervical carcinoma HeLa. The essentials:
(§1)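 Cells were seeded at 10^4 per well, grown 24 h, then exposed to derivatives (0.5–50 µM, DMSO vehicle) for 48 h at 37 °C, 5% CO2 in DMEM/10% FBS. Viability was read by MTT (0.5 mg/mL final, 2 h; A570/620). IC50 was the concentration reducing A570 to 50% of control, from dose–response curves.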

The test system of experiment [2] is human cervical carcinoma KB-3-1. The essentials: as §1
For experiment [3], the system named is human duodenal carcinoma HuTu-80. The essentials: as §1
Experiment [4] concerns human lung adenocarcinoma A549. As to conditions: Homo sapiens, A549; MTT, 48 h. The essentials:
as §1

The next experiment relates to murine melanoma B16. The essentials:
as §1

Experiment [5] deals with nontransformed human fibroblasts hFF3. As to conditions: Homo sapiens, HFF-3, read-out: IC50, µM Fibroblast hFF3. The essentials: as §1

As usually defined, the IC50 is the point on the concentration scale where inhibition reaches its midpoint. Turning to `CC1(C)C2CC[C@]3(C)C(C(=O)C=C4[C@@H]5C[C@@](C)(c6nc(-c7ccccn7)no6)CC[C@]5(C)CC[C@]43C)[C@@]2(C)CC[C@@H]1O` (stereo partly drawn) [Compound 5f, 30-nor-3β-hydroxy-11-oxo-20-(3′-(pyridin-2′′-yl)-1′,2′,4′-oxadiazol-5′-yl)-18βH-olean-12-en], the IC50 in experiment [1] (Homo sapiens, HeLa, MTT, 48 h, read-out: IC50, µM Cervix HeLa) was 3.6 ± 0.5 µM; in experiment [2] (Homo sapiens, KB 3-1, MTT, 48 h, read-out: IC50, µM Cervix KB-3-1), 4.7 ± 0.1 µM; in experiment [3] (Homo sapiens, HuTu80, MTT, 48 h, read-out: IC50, µM Duodenum HuTu-80), 3.8 ± 0.3 µM; in experiment [4] it was above 50 µM; in the experiment on murine melanoma B16 (Mus musculus, MTT, 48 h) it was 9.4 ± 0.4 µM; in experiment [5] it was above 50 µM. Also, the “Selectivity index: HeLa” value in experiment [1] (IC50 in hFF3 / IC50 in HeLa) is recorded as above 13.9. In experiment [2] (IC50 in hFF3 / IC50 in KB-3-1), the “Selectivity index: KB-3-1” value is recorded as above 10.6. Further, in experiment [3] (IC50 in hFF3 / IC50 in HuTu-80), the “Selectivity index: HuTu-80” value is listed as above 13.2. Moreover, in the experiment with murine melanoma B16 (IC50 in hFF3 / IC50 in B16), the “Selectivity index: B16” value is reported as above 5.3.

(Values after paper PMC7279002, “Novel 3′-Substituted-1′,2′,4′-Oxadiazole Derivatives of 18βH-Glycyrrhetinic Acid and Their O-Acylated Amidoximes: Synthesis and Evaluation of Antitumor and Anti-Inflammatory Potential In Vitro and In Vivo” (International Journal of Molecular Sciences, 2020).)
